Results from patent US9096560B2, “5-heterocyclylalkyl-3-hydroxy-2-phenylcyclopent-2-enones as herbicides” (Syngenta Limited, priority 2008, dated 2015).

Experiments:
Format in all cases: in vivo
Lolium perenne (LOLPE) [1] = assay: Example B pre-emergence herbicidal test, LOLPE; conditions: rate 250 g/ha, evaluated after 13 days, 100=total damage to plant, 0=no damage to plant; for pest or weed control at 250 g/ha: Lolium perenne, 312 h
Protocol: (§1) Seeds of a variety of test species were sown in standard soil in pots. After cultivation for one day (pre-emergence) or after 8 days cultivation (post-emergence) under controlled conditions in a glasshouse (at 24/16° C., day/night; 14 hours light; 65% humidity), the plants were sprayed with an aqueous spray solution derived from the formulation of the technical active ingredient in acetone/water (50:50) solution containing 0.5% Tween 20 (polyoxyethelyene sorbitan monolaurate, CAS RN 9005-64-5). The test plants were then grown in a glasshouse under controlled conditions in a glasshouse (at 24/16° C., day/night; 14 hours light; 65% humidity) and watered twice daily. After 13 days for pre and post-emergence, the test was evaluated (100=total damage to plant; 0=no damage to plant). Lolium perenne (LOLPE), Alopecurus myosuroides (ALOMY), Echinochloa crus-galli (ECHCG), Avena fatua (AVEFA) Pre-Emergence Activity

[2] = system: Alopecurus myosuroides (ALOMY); assay: Example B pre-emergence herbicidal test, ALOMY; conditions: rate 250 g/ha, evaluated after 13 days, 100=total damage to plant, 0=no damage to plant; for pest or weed control at 250 g/ha: Alopecurus myosuroides, 312 h
Protocol: as §1

[3] = system: Echinochloa crus-galli (ECHCG); assay: Example B pre-emergence herbicidal test, ECHCG; conditions: rate 250 g/ha, evaluated after 13 days, 100=total damage to plant, 0=no damage to plant; for pest or weed control at 250 g/ha: Echinochloa crus-galli, 312 h
Protocol: as §1

Avena fatua (AVEFA) [4] = assay: Example B pre-emergence herbicidal test, AVEFA; conditions: rate 250 g/ha, evaluated after 13 days, 100=total damage to plant, 0=no damage to plant; for pest or weed control at 250 g/ha: Avena fatua, 312 h
Protocol: as §1

Lolium perenne (LOLPE) [5] = assay: Example B post-emergence herbicidal test, LOLPE; conditions: rate 250 g/ha, evaluated after 13 days; for pest or weed control at 250 g/ha: Lolium perenne, 312 h, scale 0-100, read-out: Post-emergence activity LOLPE (100=total damage to plant; 0=no damage to plant)
Protocol: as §1, with “Post-Emergence” for “Pre-Emergence”

[6] = system: Alopecurus myosuroides (ALOMY); assay: Example B post-emergence herbicidal test, ALOMY; conditions: rate 250 g/ha, evaluated after 13 days; for pest or weed control at 250 g/ha: Alopecurus myosuroides, 312 h, scale 0-100, read-out: Post-emergence activity ALOMY (100=total damage to plant; 0=no damage to plant)
Protocol: as §1, with “Post-Emergence” for “Pre-Emergence”

[7] = system: Echinochloa crus-galli (ECHCG); assay: Example B post-emergence herbicidal test, ECHCG; conditions: rate 250 g/ha, evaluated after 13 days; for pest or weed control at 250 g/ha: Echinochloa crus-galli, 312 h, scale 0-100, read-out: Post-emergence activity ECHCG (100=total damage to plant; 0=no damage to plant)
Protocol: as §1, with “Post-Emergence” for “Pre-Emergence”

Avena fatua (AVEFA) [8] = assay: Example B post-emergence herbicidal test, AVEFA; conditions: rate 250 g/ha, evaluated after 13 days; for pest or weed control at 250 g/ha: Avena fatua, 312 h, scale 0-100, read-out: Post-emergence activity AVEFA (100=total damage to plant; 0=no damage to plant)
Protocol: as §1, with “Post-Emergence” for “Pre-Emergence”

Row | Compound | pest or weed control at 250 g/ha (Lolium perenne (LOLPE) [1]) [%] | pest or weed control at 250 g/ha [2] [%] | pest or weed control at 250 g/ha [3] [%] | pest or weed control at 250 g/ha (Avena fatua (AVEFA) [4]) [%] | pest or weed control at 250 g/ha (Lolium perenne (LOLPE) [5]) [%] | pest or weed control at 250 g/ha [6] [%] | pest or weed control at 250 g/ha [7] [%] | pest or weed control at 250 g/ha (Avena fatua (AVEFA) [8]) [%] | Pre-emergence activity LOLPE (damage to plant) (Lolium perenne (LOLPE) [1]) | Pre-emergence activity ALOMY (damage to plant) [2] | Pre-emergence activity ECHCG (damage to plant) [3] | Pre-emergence activity AVEFA (damage to plant) (Avena fatua (AVEFA) [4]) | Post-Emergence Activity LOLPE (100=total damage to plant; 0=no damage to plant) (Lolium perenne (LOLPE) [5]; scale 0-100) | Post-Emergence Activity ALOMY (100=total damage to plant; 0=no damage to plant) ([6]; scale 0-100) | Post-Emergence Activity ECHCG (100=total damage to plant; 0=no damage to plant) ([7]; scale 0-100) | Post-Emergence Activity AVEFA (100=total damage to plant; 0=no damage to plant) (Avena fatua (AVEFA) [8]; scale 0-100)
1 | Cc1cc(C)c(C2=C(OC(=O)c3cccs3)CC(CC3CCN(C(=O)c4cccs4)C3)C2=O)c(C)c1 (centres unmarked) [Compound P61] | 90 | 50 | 80 | 30 | 90 | 90 | 90 | 90 |  |  |  |  |  |  |  | 
2 | Cc1cc(C)c(C2=C(OC(=O)c3c(C)noc3C)CC(CC3CCN(C(=O)c4c(C)noc4C)C3)C2=O)c(C)c1 (centres unmarked) [Compound P63] | 70 | 50 | 70 | 40 | 80 | 90 | 70 | 90 |  |  |  |  |  |  |  | 
3 | Cc1cc(C)c(C2=C(OC(=O)c3ccc(Cl)nc3)CC(CC3CCN(C(=O)c4ccc(Cl)nc4)C3)C2=O)c(C)c1 (centres unmarked) [Compound P64] | 80 | 70 | 80 | 70 | 90 | 100 | 90 | 100 |  |  |  |  |  |  |  | 
4 | CCC(=O)OC1=C(c2c(C)cc(C)cc2C)C(=O)C(CC2CCN(C(=O)CC)CC2)C1 (centres unmarked) [Compound P65] | 90 | 60 | 80 | 60 | 90 | 90 | 90 | 90 |  |  |  |  |  |  |  | 
5 | Cc1cc(C)c(C2=C(O)CC(CC3CCOCC3)C2=O)c(C)c1 (centres unmarked) [Compound P67] | 100 | 80 | 90 | 90 | 100 | 100 | 100 | 100 |  |  |  |  |  |  |  | 
6 | Cc1cc(C)c(C2=C(O)CC(CC3CCOCC3)C2=O)c(C)c1 (centres unmarked) [Compound P68] |  |  |  |  |  |  |  |  | 100 | 90 | 100 | 90 | 100 | 90 | 100 | 90
7 | COc1ccc(C(=O)OC2=C(c3c(C)cc(C)cc3C)C(=O)CC2CC2CCOC2)cc1 (centres unmarked) [Compound P71] | 100 | 90 | 100 | 100 | 100 | 100 | 100 | 90 |  |  |  |  |  |  |  | 
8 | Cc1cc(C)c(C2C(=O)CC(C(O)C3CCOCC3)C2=O)c(C)c1 (centres unmarked) [Compound T3] | 60 | 50 | 20 | 50 | 70 | 40 | 70 | 70 |  |  |  |  |  |  |  | 
9 | Cc1cc(C)c(C2C(=O)CC(CC3CCS(=O)(=O)CC3)C2=O)c(C)c1 (centres unmarked) [Compound T7] | 80 | 70 | 100 | 50 | 80 | 100 | 90 | 90 |  |  |  |  |  |  |  | 
10 | Cc1cc(C)c(C2C(=O)C/C(=C\C3CCSCC3)C2=O)c(C)c1 (centres unmarked) [Compound T9] | 60 | 20 | 20 | 0 | 80 | 60 | 80 | 30 |  |  |  |  |  |  |  | 
11 | Cc1cc(C)c(C2C(=O)C/C(=C\C3CC[S+]([O-])CC3)C2=O)c(C)c1 (centres unmarked) [Compound T11] | 70 | 30 | 20 | 0 | 50 | 60 | 70 | 30 |  |  |  |  |  |  |  | 
12 | Cc1cc(C)c(C2C(=O)C/C(=C\C3CCN(Cc4ccccc4)CC3)C2=O)c(C)c1 (centres unmarked) [Compound T13] | 30 | 30 | 10 | 0 | 30 | 10 | 40 | 0 |  |  |  |  |  |  |  | 
13 | CC(=O)N1CCC(/C=C2\CC(=O)C(c3c(C)cc(C)cc3C)C2=O)CC1 (centres unmarked) [Compound T15] | 100 | 70 | 100 | 100 | 100 | 100 | 100 | 100 |  |  |  |  |  |  |  | 
14 | Cc1cc(C)c(C2C(=O)CC(CC3CCCO3)C2=O)c(C)c1 (centres unmarked) [Compound T18] | 100 | 100 | 100 | 70 | 100 | 80 | 90 | 70 |  |  |  |  |  |  |  | 
15 | Cc1cc(C)c(C2C(=O)CC(CCC3CCOCC3)C2=O)c(C)c1 (centres unmarked) [Compound T21] | 100 | 100 | 90 | 70 | 90 | 90 | 80 | 90 |  |  |  |  |  |  |  | 
16 | CON1CCC(CC2CC(=O)C(c3c(C)cc(C)cc3C)C2=O)CC1 (centres unmarked) [Compound T23] | 100 | 100 | 100 | 100 | 100 | 90 | 100 | 100 |  |  |  |  |  |  |  | 
17 | CC(=O)N1CCC(CC2CC(=O)C(c3c(C)cc(C)cc3C)C2=O)CC1 (centres unmarked) [Compound T24] | 100 | 100 | 100 | 90 | 100 | 90 | 100 | 100 |  |  |  |  |  |  |  | 
18 | Cc1cc(C)c(C2C(=O)CC(CC3CCC(C)O3)C2=O)c(C)c1 (centres unmarked) [Compound T26] | 100 | 70 | 100 | 60 | 80 | 60 | 60 | 70 |  |  |  |  |  |  |  | 
19 | Cc1cc(C)c(C2C(=O)CC(C)(C(O)C3CCOCC3)C2=O)c(C)c1 (centres unmarked) [Compound T27] | 100 | 90 | 80 | 60 | 80 | 70 | 80 | 70 |  |  |  |  |  |  |  | 
